{"source": "paper PMC9898036", "about": "“VIP152 is a selective CDK9 inhibitor with pre-clinical in vitro and in vivo efficacy in chronic lymphocytic leukemia” (Leukemia, 2022)", "key": {"[1]": {"test_system": "HG-3 and MEC-1 cell lines", "assay": "Western blot of treated CLL cell lines", "type": "cell-based, human"}, "[2]": {"target": "DYRK1A (Homo sapiens, UniProt Q13627)", "assay": "KINOMEscan: DYRK1A", "type": "binding", "conditions": "1000 nM, read-out: Percent Control"}, "[3]": {"target": "CSNK1E (Homo sapiens, UniProt P49674)", "assay": "KINOMEscan: CSNK1E", "type": "binding", "conditions": "1000 nM, read-out: Percent Control"}, "[4]": {"target": "CSNK1G3 (Homo sapiens, UniProt Q9Y6M4)", "assay": "KINOMEscan: CSNK1G3", "type": "binding", "conditions": "1000 nM, read-out: Percent Control"}, "[5]": {"target": "JAK2(JH1domain-catalytic) (Homo sapiens, UniProt O60674)", "assay": "KINOMEscan: JAK2(JH1domain-catalytic)", "type": "binding", "conditions": "1000 nM, read-out: Percent Control"}, "[6]": {"target": "Bradykinin B1 (Homo sapiens, UniProt P46663)", "assay": "Eurofins Diversity Panel", "type": "binding", "conditions": "hum, Conc. 10 μM"}, "[7]": {"target": "STK33 (Homo sapiens, UniProt Q9BYT3)", "assay": "KINOMEscan: STK33", "type": "binding", "conditions": "100 nM, read-out: Percent Control"}, "[8]": {"target": "LIMK1 (Homo sapiens, UniProt P53667)", "assay": "KINOMEscan: LIMK1", "type": "binding", "conditions": "1000 nM, read-out: Percent Control"}, "[9]": {"target": "Opiate μ(OP3, MOP) (Homo sapiens, UniProt P35372)", "assay": "Eurofins Diversity Panel", "type": "binding", "conditions": "hum, Conc. 10 μM"}, "[10]": {"target": "TAOK2 (Homo sapiens, UniProt Q9UL54)", "sequence (Q9UL54 whole entry)": "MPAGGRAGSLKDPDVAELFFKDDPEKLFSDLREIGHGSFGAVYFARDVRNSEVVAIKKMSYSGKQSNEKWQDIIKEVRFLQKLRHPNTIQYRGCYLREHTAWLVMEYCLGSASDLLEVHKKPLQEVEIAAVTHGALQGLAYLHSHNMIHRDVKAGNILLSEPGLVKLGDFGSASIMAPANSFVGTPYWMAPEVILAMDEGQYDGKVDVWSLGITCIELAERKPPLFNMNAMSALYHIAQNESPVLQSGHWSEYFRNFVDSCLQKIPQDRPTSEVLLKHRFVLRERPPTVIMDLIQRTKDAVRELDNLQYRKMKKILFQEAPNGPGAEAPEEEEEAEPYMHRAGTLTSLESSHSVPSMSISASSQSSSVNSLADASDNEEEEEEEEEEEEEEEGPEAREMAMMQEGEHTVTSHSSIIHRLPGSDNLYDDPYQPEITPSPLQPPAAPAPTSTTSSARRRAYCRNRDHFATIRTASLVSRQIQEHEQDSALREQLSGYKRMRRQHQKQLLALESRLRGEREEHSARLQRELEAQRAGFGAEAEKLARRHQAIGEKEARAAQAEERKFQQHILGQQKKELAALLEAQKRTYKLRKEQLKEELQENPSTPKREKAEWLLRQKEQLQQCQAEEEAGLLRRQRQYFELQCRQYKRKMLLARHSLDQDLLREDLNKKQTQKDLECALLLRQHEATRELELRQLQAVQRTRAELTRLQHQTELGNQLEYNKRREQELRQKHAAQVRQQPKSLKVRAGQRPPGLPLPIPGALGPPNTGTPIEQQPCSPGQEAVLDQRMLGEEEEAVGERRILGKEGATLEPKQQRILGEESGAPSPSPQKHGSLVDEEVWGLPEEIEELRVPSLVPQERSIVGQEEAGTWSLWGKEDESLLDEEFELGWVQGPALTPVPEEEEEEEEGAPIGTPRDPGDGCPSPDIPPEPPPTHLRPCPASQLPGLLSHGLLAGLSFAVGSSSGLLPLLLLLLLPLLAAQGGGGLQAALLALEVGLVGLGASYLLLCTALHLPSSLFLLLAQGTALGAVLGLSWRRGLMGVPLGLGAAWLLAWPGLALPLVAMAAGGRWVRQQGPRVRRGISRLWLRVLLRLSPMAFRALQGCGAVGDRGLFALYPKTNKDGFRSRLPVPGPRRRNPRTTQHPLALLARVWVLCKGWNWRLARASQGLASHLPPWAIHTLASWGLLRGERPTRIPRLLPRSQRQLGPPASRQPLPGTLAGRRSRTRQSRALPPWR", "assay": "KINOMEscan: TAOK2", "type": "binding", "conditions": "100 nM, read-out: Percent Control"}, "[11]": {"target": "ARK5 (Homo sapiens, UniProt O60285)", "assay": "KINOMEscan: ARK5", "type": "binding", "conditions": "1000 nM, read-out: Percent Control"}, "[12]": {"target": "PFPK5(P.falciparum) (Plasmodium falciparum, UniProt P61075)", "assay": "DiscoverX KINOMEscan kinase profiling: PFPK5(P.falciparum)", "type": "binding", "conditions": "PFPK5(P.falciparum) (Entrez MAL13P1.279); 100 nM; read-out: Percent Control"}, "[13]": {"test_system": "Rolipram", "assay": "Eurofins Diversity Panel", "type": "binding", "conditions": "rat, Conc. 10 μM"}, "[14]": {"target": "DAPK1 (Homo sapiens, UniProt P53355)", "assay": "KINOMEscan: DAPK1", "type": "binding", "conditions": "1000 nM, read-out: Percent Control"}, "[15]": {"test_system": "primary CLL samples with human stromal cell line (HS-5) co-culture", "assay": "Annexin V/PI flow cytometry, four-hour treatment with washout, HS-5 stromal co-culture", "type": "cell-based", "conditions": "relapse/refractory samples; four-hour exposure, after 24 h"}, "[16]": {"target": "MKK7 (Homo sapiens, UniProt O14733)", "sequence (O14733 whole entry)": "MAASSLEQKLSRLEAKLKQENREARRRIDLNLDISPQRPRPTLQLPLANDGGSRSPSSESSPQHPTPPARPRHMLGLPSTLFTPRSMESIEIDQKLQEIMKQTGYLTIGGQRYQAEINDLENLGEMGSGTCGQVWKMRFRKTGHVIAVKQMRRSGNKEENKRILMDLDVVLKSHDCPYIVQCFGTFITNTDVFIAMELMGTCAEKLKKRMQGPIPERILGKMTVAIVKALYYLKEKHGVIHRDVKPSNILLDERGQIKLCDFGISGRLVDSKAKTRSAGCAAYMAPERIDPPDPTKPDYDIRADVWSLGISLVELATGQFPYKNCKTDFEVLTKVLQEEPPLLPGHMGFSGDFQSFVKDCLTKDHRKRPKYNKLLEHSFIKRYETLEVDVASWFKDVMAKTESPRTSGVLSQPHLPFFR", "assay": "KINOMEscan: MKK7", "type": "binding", "conditions": "1000 nM, read-out: Percent Control"}, "[17]": {"target": "Transporter, GABA (Rattus norvegicus, UniProt P23978)", "assay": "Eurofins Diversity Panel", "type": "binding", "conditions": "Conc. 10 μM"}, "[18]": {"target": "FLT4 (Homo sapiens, UniProt P35916)", "assay": "KINOMEscan: FLT4", "type": "binding", "conditions": "1000 nM, read-out: Percent Control"}, "[19]": {"target": "Dopamine D3 (Homo sapiens, UniProt P35462)", "sequence (P35462 whole entry)": "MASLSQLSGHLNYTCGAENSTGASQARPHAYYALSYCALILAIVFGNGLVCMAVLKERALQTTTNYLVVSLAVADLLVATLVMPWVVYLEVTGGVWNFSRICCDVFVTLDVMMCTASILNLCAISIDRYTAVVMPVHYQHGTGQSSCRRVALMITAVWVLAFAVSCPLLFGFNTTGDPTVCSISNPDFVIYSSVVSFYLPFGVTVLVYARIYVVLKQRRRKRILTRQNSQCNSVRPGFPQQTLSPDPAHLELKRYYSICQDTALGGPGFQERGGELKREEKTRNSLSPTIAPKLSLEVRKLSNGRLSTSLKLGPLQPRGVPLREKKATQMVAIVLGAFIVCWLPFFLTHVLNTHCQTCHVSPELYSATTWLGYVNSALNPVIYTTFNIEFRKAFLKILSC", "assay": "Eurofins Diversity Panel", "type": "binding", "conditions": "hum, Conc. 10 μM"}, "[20]": {"target": "PIKFYVE (Homo sapiens, UniProt Q9Y2I7)", "sequence (Q9Y2I7 whole entry)": "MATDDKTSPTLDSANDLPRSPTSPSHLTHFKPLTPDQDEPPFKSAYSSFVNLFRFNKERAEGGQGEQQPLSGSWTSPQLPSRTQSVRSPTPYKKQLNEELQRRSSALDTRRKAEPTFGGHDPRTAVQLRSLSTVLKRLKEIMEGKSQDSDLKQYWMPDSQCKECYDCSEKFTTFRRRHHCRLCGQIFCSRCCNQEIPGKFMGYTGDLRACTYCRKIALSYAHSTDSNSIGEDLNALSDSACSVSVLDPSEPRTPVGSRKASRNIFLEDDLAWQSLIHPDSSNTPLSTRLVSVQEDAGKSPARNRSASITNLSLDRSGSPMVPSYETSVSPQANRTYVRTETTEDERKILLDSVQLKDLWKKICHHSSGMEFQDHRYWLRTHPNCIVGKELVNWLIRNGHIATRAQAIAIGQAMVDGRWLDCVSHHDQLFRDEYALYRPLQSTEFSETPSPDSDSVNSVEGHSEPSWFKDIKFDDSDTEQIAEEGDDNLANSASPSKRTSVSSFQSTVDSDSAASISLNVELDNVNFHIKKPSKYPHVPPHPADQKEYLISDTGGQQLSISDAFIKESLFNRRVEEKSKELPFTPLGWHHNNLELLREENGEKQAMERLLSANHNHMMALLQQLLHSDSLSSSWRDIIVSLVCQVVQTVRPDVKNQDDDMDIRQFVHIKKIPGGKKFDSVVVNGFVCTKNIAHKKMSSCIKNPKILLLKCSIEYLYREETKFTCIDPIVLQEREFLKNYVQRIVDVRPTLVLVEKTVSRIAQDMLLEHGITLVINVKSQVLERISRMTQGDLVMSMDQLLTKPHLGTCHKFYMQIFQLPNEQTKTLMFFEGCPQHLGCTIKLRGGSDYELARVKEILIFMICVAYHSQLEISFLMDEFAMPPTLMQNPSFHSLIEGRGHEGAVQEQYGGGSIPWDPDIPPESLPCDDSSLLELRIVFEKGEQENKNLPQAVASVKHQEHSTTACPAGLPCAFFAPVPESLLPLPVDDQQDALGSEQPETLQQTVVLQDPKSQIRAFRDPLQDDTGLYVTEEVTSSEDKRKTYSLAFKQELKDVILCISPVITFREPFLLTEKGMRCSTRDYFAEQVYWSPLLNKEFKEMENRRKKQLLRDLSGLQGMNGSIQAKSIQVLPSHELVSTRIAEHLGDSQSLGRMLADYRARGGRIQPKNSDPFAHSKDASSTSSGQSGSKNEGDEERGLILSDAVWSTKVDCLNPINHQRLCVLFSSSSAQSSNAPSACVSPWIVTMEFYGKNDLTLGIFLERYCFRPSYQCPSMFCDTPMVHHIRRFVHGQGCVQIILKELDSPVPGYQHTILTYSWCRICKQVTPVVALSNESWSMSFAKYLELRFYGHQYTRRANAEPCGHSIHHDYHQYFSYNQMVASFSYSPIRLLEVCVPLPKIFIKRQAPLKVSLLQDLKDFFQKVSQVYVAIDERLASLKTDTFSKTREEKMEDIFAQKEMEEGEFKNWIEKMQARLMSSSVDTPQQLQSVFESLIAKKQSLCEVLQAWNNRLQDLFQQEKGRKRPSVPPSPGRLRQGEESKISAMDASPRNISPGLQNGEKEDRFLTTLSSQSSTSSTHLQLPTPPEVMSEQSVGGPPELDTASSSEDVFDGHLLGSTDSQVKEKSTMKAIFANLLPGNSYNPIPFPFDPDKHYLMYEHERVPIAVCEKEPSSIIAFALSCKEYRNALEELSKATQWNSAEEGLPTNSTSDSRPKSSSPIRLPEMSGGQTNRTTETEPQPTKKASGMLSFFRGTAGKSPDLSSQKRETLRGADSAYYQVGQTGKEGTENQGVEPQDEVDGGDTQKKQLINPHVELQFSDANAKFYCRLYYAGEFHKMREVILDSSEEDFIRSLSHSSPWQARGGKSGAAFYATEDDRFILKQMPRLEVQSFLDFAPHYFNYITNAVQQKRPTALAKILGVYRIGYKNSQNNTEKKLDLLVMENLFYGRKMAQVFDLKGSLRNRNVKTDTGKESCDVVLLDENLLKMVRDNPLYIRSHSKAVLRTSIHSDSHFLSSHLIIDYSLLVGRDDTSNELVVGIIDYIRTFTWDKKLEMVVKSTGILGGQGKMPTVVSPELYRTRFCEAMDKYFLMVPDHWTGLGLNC", "assay": "KINOMEscan: PIKFYVE", "type": "binding", "procedure": "The structure and synthesis of VIP152 were recently described by Lücking et al.. (Fig. 1A); however, the selectivity of the molecule in cellular systems has yet to be explored. […] We also performed this experiment at 1000 nM, where CDK9 was inhibited at 99%. […] We found a strong concordance between our data and those of Lücking when comparing the most inhibited kinases. Potential off-target effects of VIP152 were next tested in vitro at a concentration of 10 µM for off-target activity against a broad range of receptors, transporters, ion channels, and enzymes (n = 138) using the Eurofins Diversity Panel.\nKinomescan Kinase Profiling Assay\nKinomescan Assay was performed at DiscoverRX and described in Fabian, et al. 2005, Nat.\nBiotechnol. In brief, kinases were produced and subsequently tagged with DNA for qPCR detection.\nStreptavidin-coated magnetic beads were bound to biotinylated kinase ligands to serve as a solid support.\nVIP152 was dissolved in DMSO and tested across a 10 serial threefold dilution set and compared to a test compound and a DMSO control. Kinases which were inhibited by VIP152 would not be bound to the solid-support resulting in decreased substrate for the qPCR reaction. Kinome map was produced via TreeSpot Analysis from DiscoverRX. […]\nNanoBRETTM Target Engagement Assay Protocol […]\nThe cell and lipid:DNA […]\ncomplex was dispensed into a sterile tissue culture dish and incubated for 22-24 hours. Test compounds were then delivered from the compound source plate to the wells of a 384-well white NBS plate by Echo 550. Cells with NanoBRET Tracer Reagent were then prepared by first removing media from dish of transfected HEK293 cells via aspiration, trypsinization, and allowing cells to dissociate from the dish. Trypsin was neutralized using medium containing serum and centrifuged at 200g for 5 minutes to pellet the cells. Cell density was then adjusted to 2E05 cells/mL in Opti-MEM without phenol red. Complete 20X NanoBRET Tracer Reagent was prepared with Tracer Dilution Buffer and dispensed at a ratio of 1:20 Reagent to cells in the tube. The cell"}, "[21]": {"target": "S6K1 (Homo sapiens, UniProt P23443)", "assay": "KINOMEscan: S6K1", "type": "binding", "conditions": "100 nM, read-out: Percent Control"}, "[22]": {"target": "DMPK (Homo sapiens, UniProt Q09013)", "assay": "KINOMEscan: DMPK", "type": "binding", "conditions": "1000 nM, read-out: Percent Control"}, "[23]": {"target": "ZAK (Homo sapiens, UniProt Q9NYL2)", "assay": "KINOMEscan: ZAK", "type": "binding", "conditions": "100 nM, read-out: Percent Control"}, "[24]": {"target": "JNK2 (Homo sapiens, UniProt P45984)", "assay": "KINOMEscan: JNK2", "type": "binding", "conditions": "1000 nM, read-out: Percent Control"}, "[25]": {"target": "TAOK3 (Homo sapiens, UniProt Q9H2K8)", "assay": "KINOMEscan: TAOK3", "type": "binding", "conditions": "100 nM, read-out: Percent Control"}, "[26]": {"target": "KIT (Homo sapiens, UniProt P10721)", "sequence (P10721 26-976)": "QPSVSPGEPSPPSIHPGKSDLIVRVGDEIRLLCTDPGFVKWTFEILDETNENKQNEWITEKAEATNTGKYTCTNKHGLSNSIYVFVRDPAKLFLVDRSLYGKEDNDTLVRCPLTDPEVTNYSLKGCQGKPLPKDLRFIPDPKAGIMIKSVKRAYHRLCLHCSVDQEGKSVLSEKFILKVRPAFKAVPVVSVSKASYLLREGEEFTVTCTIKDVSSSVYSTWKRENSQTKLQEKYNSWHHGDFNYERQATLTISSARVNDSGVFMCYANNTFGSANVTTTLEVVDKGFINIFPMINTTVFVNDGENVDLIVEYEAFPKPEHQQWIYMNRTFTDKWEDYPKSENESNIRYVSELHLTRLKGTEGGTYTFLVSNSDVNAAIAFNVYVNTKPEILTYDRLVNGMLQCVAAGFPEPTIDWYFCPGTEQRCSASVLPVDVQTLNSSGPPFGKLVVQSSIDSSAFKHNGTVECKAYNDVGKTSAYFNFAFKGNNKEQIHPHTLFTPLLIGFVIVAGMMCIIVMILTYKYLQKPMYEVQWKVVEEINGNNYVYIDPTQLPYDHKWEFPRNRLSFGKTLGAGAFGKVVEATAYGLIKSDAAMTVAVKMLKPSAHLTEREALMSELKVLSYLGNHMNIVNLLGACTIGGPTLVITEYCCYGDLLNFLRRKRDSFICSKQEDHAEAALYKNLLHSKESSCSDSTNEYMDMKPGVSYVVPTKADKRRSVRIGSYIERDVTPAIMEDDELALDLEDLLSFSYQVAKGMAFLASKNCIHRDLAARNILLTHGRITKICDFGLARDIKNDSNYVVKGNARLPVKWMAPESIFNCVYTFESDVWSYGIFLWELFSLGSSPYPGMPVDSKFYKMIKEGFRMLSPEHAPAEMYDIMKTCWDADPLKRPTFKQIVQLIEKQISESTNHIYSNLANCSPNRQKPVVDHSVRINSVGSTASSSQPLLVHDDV", "assay": "KINOMEscan: KIT", "type": "binding", "conditions": "1000 nM, read-out: Percent Control"}, "[27]": {"target": "AAK1 (Homo sapiens, UniProt Q2M2I8)", "assay": "KINOMEscan: AAK1", "type": "binding", "conditions": "1000 nM, read-out: Percent Control"}, "[28]": {"target": "Neuropeptide Y Y2 (Homo sapiens, UniProt P49146)", "assay": "Eurofins Diversity Panel", "type": "binding", "conditions": "hum, Conc. 10 μM"}}}
{"smiles": "COc1cc(F)ccc1-c1cc(Nc2cc(CS(C)(=N)=O)ccn2)ncc1F", "note": "(centres unmarked) [VIP152]", "values": [{"measurement": "MCL1 protein levels", "setting": "[1]; 0.1 µM, 8 h", "result": "decreased"}, {"measurement": "Phosphorylation of serine 5 (marker of CDK7 activity)", "setting": "[1]; 0.1 µM, 8 h", "result": "not diminished"}, {"measurement": "glycogen synthase phosphorylation at serine 641 (marker of GSK3α/β activity)", "setting": "[1]; 0.1 µM, 8 h", "result": "did not observe a decrease"}, {"measurement": "phospho-serine 2 (pS2) of RNA Polymerase II", "setting": "[1]; 0.1 µM, 8 h", "result": "decrease"}, {"measurement": "MCL1", "setting": "[1]; 1 µM, across 24 h", "result": "decreased"}, {"measurement": "c-MYC", "setting": "[1]; 1 µM, across 24 h", "result": "decreased"}, {"measurement": "pS2", "setting": "[1]; 1 µM, across 24 h", "result": "decreased"}, {"measurement": "pS5", "setting": "[1]; 1 µM, across 24 h", "result": "minimal change"}, {"measurement": "PARP cleavage (induction of apoptosis)", "setting": "[1]; beginning at six hours", "result": "detect PARP cleavage"}, {"measurement": "remaining binding at 1 µM", "setting": "[2]", "result": 12, "unit": "%"}, {"measurement": "remaining binding at 1 µM", "setting": "[3]", "result": 89, "unit": "%"}, {"measurement": "remaining binding at 1 µM", "setting": "[4]", "result": 97, "unit": "%"}, {"measurement": "remaining binding at 1 µM", "setting": "[5]", "result": 66, "unit": "%"}, {"measurement": "inhibition at 10 µM", "setting": "[6]", "result": 1, "unit": "%"}, {"measurement": "remaining binding at 0.1 µM", "setting": "[7]", "result": 88, "unit": "%"}, {"measurement": "remaining binding at 1 µM", "setting": "[8]", "result": 92, "unit": "%"}, {"measurement": "inhibition at 10 µM", "setting": "[9]", "result": 8, "unit": "%"}, {"measurement": "remaining binding at 0.1 µM", "setting": "[10]", "result": 92, "unit": "%"}, {"measurement": "remaining binding at 1 µM", "setting": "[11]", "result": 100, "unit": "%"}, {"measurement": "remaining binding at 0.1 µM", "setting": "[12]", "result": 100, "unit": "%"}, {"measurement": "% Inh.", "setting": "[13]", "result": 1, "unit": "%"}, {"measurement": "remaining binding at 1 µM", "setting": "[14]", "result": 87, "unit": "%"}, {"measurement": "apoptosis and stromal protection", "setting": "[15]", "result": "induce significant apoptosis after 24 h and overcome stromal protection"}, {"measurement": "remaining binding at 1 µM", "setting": "[16]", "result": 100, "unit": "%"}, {"measurement": "inhibition at 10 µM", "setting": "[17]", "result": -20, "unit": "%"}, {"measurement": "remaining binding at 1 µM", "setting": "[18]", "result": 74, "unit": "%"}, {"measurement": "inhibition at 10 µM", "setting": "[19]", "result": 7, "unit": "%"}, {"measurement": "inhibition at 0.1 µM", "setting": "[20]; 100 nM, read-out: inhibition of PIKFYVE relative to control", "result": 74, "unit": "%"}, {"measurement": "remaining binding at 0.1 µM", "setting": "[20]; PIKFYVE, 100 nM, read-out: Percent Control", "result": 26, "unit": "%"}, {"measurement": "remaining binding at 1 µM", "setting": "[20]; kinase PIKFYVE (Entrez PIKFYVE), compound concentration 1000 nM, read-out: Percent Control", "result": 55, "unit": "%"}, {"measurement": "remaining binding at 0.1 µM", "setting": "[21]", "result": 96, "unit": "%"}, {"measurement": "remaining binding at 1 µM", "setting": "[22]", "result": 62, "unit": "%"}, {"measurement": "remaining binding at 0.1 µM", "setting": "[23]", "result": 100, "unit": "%"}, {"measurement": "remaining binding at 1 µM", "setting": "[24]", "result": 83, "unit": "%"}, {"measurement": "remaining binding at 0.1 µM", "setting": "[25]", "result": 88, "unit": "%"}, {"measurement": "remaining binding at 1 µM", "setting": "[26]", "result": 83, "unit": "%"}, {"measurement": "remaining binding at 1 µM", "setting": "[27]", "result": 47, "unit": "%"}, {"measurement": "inhibition at 10 µM", "setting": "[28]", "result": 3, "unit": "%"}]}
